Source: ChEMBL document CHEMBL5380816, “Inclusion of Nitrofurantoin into the Realm of Cancer Chemotherapy via Biology-Oriented Synthesis and Drug Repurposing” (J Med Chem, 2023)
The source made the active and inactive calls. The rule behind the calls is not given here.

Experiments:
[1] = Cytotoxicity in human WI-38 cells assessed as reduction in cell viability incubated for 72 hrs by MTT assay; type: toxicity, cell-based
[2] = Cytotoxicity in human WI-38 cells assessed as safe dose incubated for 72 hrs by MTT assay; type: toxicity, cell-based; conditions: read-out: EC100
[3] = test system: Caco-2; assay: Anticancer activity against human Caco-2 cells incubated for 72 hrs by MTT assay; type: functional, cell-based; conditions: Caco-2, 72 h
[4] = Selectivity index, ratio of IC50 for human WI-38 cells to IC50 for human Caco-2 cells
[5] = test system: MCF7; assay: Anticancer activity against human MCF7 cells incubated for 72 hrs by MTT assay; type: functional, cell-based; conditions: MCF7, 72 h
[6] = Selectivity index, ratio of IC50 for human WI-38 cells to IC50 for human MCF7 cells; type: toxicity; conditions: WI-38 cells versus MCF7 cells, read-out: Ratio IC50
[7] = test system: HeLa; assay: Anticancer activity against human HeLa cells incubated for 72 hrs by MTT assay; type: functional, cell-based
[8] = Selectivity index, ratio of IC50 for human WI-38 cells to IC50 for human HeLa cells; type: toxicity; conditions: WI-38 cells versus HeLa cells, read-out: Ratio IC50
[9] = test system: HepG2; assay: Anticancer activity against human HepG2 cells incubated for 72 hrs by MTT assay; type: functional, cell-based; conditions: HepG2, 72 h
[10] = Selectivity index, ratio of IC50 for human WI-38 cells to IC50 for human HepG2 cells; type: toxicity; conditions: WI-38 cells versus HepG2 cells, read-out: Ratio IC50
[11] = test system: MCF7; assay: Potency index, ratio of 5-fluorouracil IC50 to test compound IC50 for antiproliferative activity against human MCF7 cells; type: functional
[12] = test system: HepG2; assay: Potency index, ratio of 5-fluorouracil IC50 to test compound IC50 for antiproliferative activity against human HepG2 cells; type: functional
[13] = test system: Caco-2; assay: Induction of apoptosis in human Caco-2 cells assessed as early apoptotic cells incubated at 0.11 uM for 72 hrs by annexin V-FITC based propidium iodide dual staining assay (reference value: 0.07%); type: functional
[14] = test system: MCF7; assay: Induction of apoptosis in human MCF7 cells assessed as late apoptotic cells incubated at 0.11 uM for 72 hrs by annexin V-FITC based propidium iodide dual staining assay (reference value: 0.01%); type: functional
[15] = molecular target: T1, Tumour suppressor p53/oncoprotein Mdm2 (Homo sapiens, UniProt P04637+Q00987); assay: Inhibition of human recombinant MDM2/p53 interaction measured after 10 mins by ELISA method; type: protein assay
Target sequence in this assay (P04637 whole entry): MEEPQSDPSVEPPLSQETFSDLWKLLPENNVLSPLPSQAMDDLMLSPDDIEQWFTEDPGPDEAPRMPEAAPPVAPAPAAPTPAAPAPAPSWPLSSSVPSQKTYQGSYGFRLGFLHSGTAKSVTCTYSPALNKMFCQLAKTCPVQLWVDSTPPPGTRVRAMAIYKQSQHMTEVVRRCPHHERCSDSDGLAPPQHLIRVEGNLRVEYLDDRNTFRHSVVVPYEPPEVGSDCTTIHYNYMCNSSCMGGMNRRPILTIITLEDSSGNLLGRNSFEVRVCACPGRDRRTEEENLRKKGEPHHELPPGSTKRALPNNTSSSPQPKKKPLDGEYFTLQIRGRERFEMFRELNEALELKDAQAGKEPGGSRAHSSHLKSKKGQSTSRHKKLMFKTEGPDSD
Target sequence in this assay (Q00987 whole entry): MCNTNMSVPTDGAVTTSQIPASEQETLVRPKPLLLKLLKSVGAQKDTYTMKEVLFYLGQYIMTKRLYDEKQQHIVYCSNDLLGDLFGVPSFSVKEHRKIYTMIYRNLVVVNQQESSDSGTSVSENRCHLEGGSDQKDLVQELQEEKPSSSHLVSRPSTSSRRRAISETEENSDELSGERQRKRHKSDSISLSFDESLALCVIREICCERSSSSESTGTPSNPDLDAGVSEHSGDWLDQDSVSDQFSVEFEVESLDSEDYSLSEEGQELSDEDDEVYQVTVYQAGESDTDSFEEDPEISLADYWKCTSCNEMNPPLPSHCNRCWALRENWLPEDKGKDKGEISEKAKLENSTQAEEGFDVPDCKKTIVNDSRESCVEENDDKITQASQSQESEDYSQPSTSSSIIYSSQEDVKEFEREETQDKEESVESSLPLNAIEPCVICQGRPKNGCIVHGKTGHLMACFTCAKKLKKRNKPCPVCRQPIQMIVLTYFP

[16] = molecular target: T1, Tumour suppressor p53/oncoprotein Mdm2; assay: Potency index, ratio of nitrofurantoin IC50 to compound IC50 for inhibition of human recombinant MDM2/p53 interaction; type: protein assay
Target sequence in this assay (P04637 whole entry, looked up): as the sequence (P04637 whole entry) above
Target sequence in this assay (Q00987 whole entry, looked up): as the sequence (Q00987 whole entry) above

[17] = test system: Caco-2; assay: Induction of apoptosis in human Caco-2 cells assessed as increase in Bax expression level relative to nitrofurantoin; type: functional
[18] = test system: MCF7; assay: Induction of apoptosis in human MCF7 cells assessed as increase in Bax expression level relative to nitrofurantoin; type: functional
[19] = test system: HepG2; assay: Induction of apoptosis in human HepG2 cells assessed as increase in Bax expression level relative to nitrofurantoin; type: functional
[20] = test system: HeLa; assay: Induction of apoptosis in human HeLa cells assessed as increase in Bax expression level relative to nitrofurantoin; type: functional
[21] = test system: Caco-2; assay: Induction of apoptosis in human Caco-2 cells assessed as increase in Bax expression level relative to 5-fluorouracil; type: functional
[22] = test system: MCF7; assay: Induction of apoptosis in human MCF7 cells assessed as increase in Bax expression level relative to 5-fluorouracil; type: functional
[23] = test system: HepG2; assay: Induction of apoptosis in human HepG2 cells assessed as increase in Bax expression level relative to 5-fluorouracil; type: functional
[24] = test system: HeLa; assay: Induction of apoptosis in human HeLa cells assessed as increase in Bax expression level relative to 5-fluorouracil; type: functional
[25] = test system: HeLa; assay: Induction of apoptosis in human HeLa cells assessed as increase in Bax expression level relative to control; type: functional
[26] = test system: HepG2; assay: Induction of apoptosis in human HepG2 cells assessed as increase in Bax expression level relative to control; type: functional
[27] = test system: Caco-2; assay: Induction of apoptosis in human Caco-2 cells assessed as decrease in Bcl-2 expression level incubated for 72 hrs relative to nitrofurantoin; type: functional; design: scale not given: the % may be the effect or the level left
[28] = test system: MCF7; assay: Induction of apoptosis in human MCF7 cells assessed as decrease in Bcl-2 expression level incubated for 72 hrs relative to nitrofurantoin; type: functional; design: scale not given: the % may be the effect or the level left
[29] = test system: HepG2; assay: Induction of apoptosis in human HepG2 cells assessed as decrease in Bcl-2 expression level incubated for 72 hrs relative to nitrofurantoin; type: functional; design: scale not given: the % may be the effect or the level left
[30] = test system: HeLa; assay: Induction of apoptosis in human HeLa cells assessed as decrease in Bcl-2 expression level incubated for 72 hrs relative to nitrofurantoin; type: functional; design: scale not given: the % may be the effect or the level left
[31] = test system: Caco-2; assay: Induction of apoptosis in human Caco-2 cells assessed as decrease in Bcl-2 expression level incubated for 72 hrs relative to 5-fluorouracil; type: functional; design: scale not given: the % may be the effect or the level left
[32] = test system: MCF7; assay: Induction of apoptosis in human MCF7 cells assessed as decrease in Bcl-2 expression level incubated for 72 hrs relative to 5-fluorouracil; type: functional; design: scale not given: the % may be the effect or the level left
[33] = test system: HepG2; assay: Induction of apoptosis in human HepG2 cells assessed as decrease in Bcl-2 expression level incubated for 72 hrs relative to 5-fluorouracil; type: functional; design: scale not given: the % may be the effect or the level left
[34] = test system: HeLa; assay: Induction of apoptosis in human HeLa cells assessed as decrease in Bcl-2 expression level incubated for 72 hrs relative to 5-fluorouracil; type: functional; design: scale not given: the % may be the effect or the level left
[35] = test system: Caco-2; assay: Induction of apoptosis in human Caco-2 cells assessed as ratio of gene expression activity in pro apoptotic Bax to anti apoptotic Bcl-2; type: functional
[36] = test system: MCF7; assay: Induction of apoptosis in human MCF7 cells assessed as ratio of gene expression activity in pro apoptotic Bax to anti apoptotic Bcl-2; type: functional
[37] = test system: HeLa; assay: Induction of apoptosis in human HeLa cells assessed as ratio of gene expression activity in pro apoptotic Bax to anti apoptotic Bcl-2; type: functional
[38] = test system: HepG2; assay: Induction of apoptosis in human HepG2 cells assessed as ratio of gene expression activity in pro apoptotic Bax to anti apoptotic Bcl-2; type: functional
[39] = test system: MCF7; assay: Antitumor activity against human MCF7 cells xenografted in immunocompromised BALB/c mouse model assessed as tumor size reduction administered at 50 mg/kg, ip for 21 days; type: functional, organism-based; conditions: time 21.0 day
[40] = test system: MCF7; assay: Antitumor activity against human MCF7 cells xenografted in immunocompromised BALB/c mouse model assessed as decrease in tumor maas administered at 50 mg/kg, ip for 21 days relative to control; type: functional; design: scale not given: the % may be the effect or the level left; conditions: time 21 day
[41] = test system: HeLa; assay: Anticancer activity against human HeLa cells assessed as losing contact with neighbouring cells incubated at 0.097uM for 72 hrs by phase contrast inverted microscopic analysis; type: functional, cell-based
[42] = test system: HeLa; assay: Anticancer activity against human HeLa cells assessed as round cells incubated at 0.098uM for 72 hrs by phase contrast inverted microscopic analysis; type: functional, cell-based
[43] = test system: HepG2; assay: Induction of apoptosis in human HepG2 cells assessed as total apoptotic cells incubated at 0.098 uM for 72 hrs by annexin V-FITC based propidium iodide dual staining assay (reference value: 0.99 +/- 0.02%); type: functional
[44] = test system: HepG2; assay: Induction of oxidative stress in human HepG2 cells assessed as cell death by measuring redox alteration fluorescence incubated at 0.097 uM for 72 hrs in presence of dihydro dichlorofluorescein diacetate by DCFH-DA based flow cytometric analysis relative to control; type: functional

## C#CCN1C(=O)CN(/N=C/c2ccc([N+](=O)[O-])o2)C1=O
[1]
  IC50 at 72 h: 306 nM
[2]
  MNTC at 72 h: 110 nM
[3]
  IC50: 99 nM
[4]
  Ratio IC50: 3.13
[5]
  IC50: 111 nM
[6]
  selectivity ratio: 2.79
[7]
  IC50: 265 nM
[8]
  selectivity ratio: 1.16
[9]
  IC50: 89 nM
[10]
  selectivity ratio: 3.46
[11]
  Ratio IC50: 1.2
[12]
  Ratio IC50: 1.2
[13]
  Activity: 4.84%
[14]
  Activity: 34.7%
[15]
  IC50: 590 nM
[16]
  Ratio IC50: 2.7
[17]
  Activity: 70%
[18]
  Activity: 70%
[19]
  Activity: 70%
[20]
  Activity: 70%
[21]
  Activity: 70%
[22]
  Activity: 70%
[23]
  Activity: 70%
[24]
  Activity: 70%
[25]
  Activity: 300%
[26]
  Activity: 300%
[27]
  Activity: 30%
[28]
  Activity: 30%
[29]
  Activity: 30%
[30]
  Activity: 30%
[31]
  Activity: 30%
[32]
  Activity: 30%
[33]
  Activity: 30%
[34]
  Activity: 30%
[35]
  Ratio: 5.278
[36]
  Ratio: 4.453
[37]
  Ratio: 3.004
[38]
  Ratio: 11.74
[39]
  Activity: Active
[40]
  Activity: ~65%

## O=c1[nH]cc(F)c(=O)[nH]1 [FLUOROURACIL]
[1]
  IC50 at 72 h: 192 nM
[2]
  MNTC at 72 h: 17 nM
[3]
  IC50: 266 nM
[4]
  Ratio IC50: 0.76
[5]
  IC50: 235 nM
[6]
  selectivity ratio: 0.865
[7]
  IC50: 199 nM
[8]
  selectivity ratio: 1.02
[9]
  IC50: 178 nM
[10]
  selectivity ratio: 1.13
[35]
  Ratio: 1.187
[36]
  Ratio: 1.246
[37]
  Ratio: 1.257
[38]
  Ratio: 1.247
[39]
  Activity: Active
[40]
  Activity: ~65%

## NS(=O)(=O)c1ccc(-n2cc(CN3C(=O)CN(/N=C/c4ccc([N+](=O)[O-])o4)C3=O)nn2)cc1
[1]
  IC50 at 72 h: 249 nM
[2]
  MNTC at 72 h: 97 nM
[3]
  IC50: 80 nM
[4]
  Ratio IC50: 3.14
[5]
  IC50: 74 nM
[6]
  selectivity ratio: 3.36
[7]
  IC50: 81 nM
[8]
  selectivity ratio: 3.08
[9]
  IC50: 309 nM
[10]
  selectivity ratio: 0.807
[11]
  Ratio IC50: 1.2
[41]
  Activity: Active
[15]
  IC50: 410 nM
[16]
  Ratio IC50: 3.6
[17]
  Activity: 70%
[18]
  Activity: 70%
[19]
  Activity: 70%
[20]
  Activity: 70%
[21]
  Activity: 70%
[22]
  Activity: 70%
[23]
  Activity: 70%
[24]
  Activity: 70%
[27]
  Activity: 30%
[28]
  Activity: 30%
[29]
  Activity: 30%
[30]
  Activity: 30%
[31]
  Activity: 30%
[32]
  Activity: 30%
[33]
  Activity: 30%
[34]
  Activity: 30%
[35]
  Ratio: 7.328
[36]
  Ratio: 10.4
[37]
  Ratio: 6.36
[38]
  Ratio: 2.326

## O=C(CN1C(=O)CN(/N=C/c2ccc([N+](=O)[O-])o2)C1=O)c1ccc(Cl)cc1
[1]
  IC50 at 72 h: 251 nM
[2]
  MNTC at 72 h: 98 nM
[3]
  IC50: 134 nM
[4]
  Ratio IC50: 1.87
[5]
  IC50: 117 nM
[6]
  selectivity ratio: 2.14
[7]
  IC50: 62 nM
[8]
  selectivity ratio: 4.04
[9]
  IC50: 110 nM
[10]
  selectivity ratio: 2.29
[11]
  Ratio IC50: 1.2
[12]
  Ratio IC50: 1.6
[42]
  Activity: Active
[43]
  Activity: 38.74%
[44]
  Activity: 38.99%
[15]
  IC50: 670 nM
[16]
  Ratio IC50: 2.4
[17]
  Activity: 70%
[18]
  Activity: 70%
[19]
  Activity: 70%
[20]
  Activity: 70%
[21]
  Activity: 70%
[22]
  Activity: 70%
[23]
  Activity: 70%
[24]
  Activity: 70%
[25]
  Activity: 300%
[26]
  Activity: 300%
[27]
  Activity: 30%
[28]
  Activity: 30%
[29]
  Activity: 30%
[30]
  Activity: 30%
[31]
  Activity: 30%
[32]
  Activity: 30%
[33]
  Activity: 30%
[34]
  Activity: 30%
[35]
  Ratio: 3.396
[36]
  Ratio: 5.104
[37]
  Ratio: 11.09
[38]
  Ratio: 4.215
